Source: patent publication US11858900B2, “Fluorinated 2-amino-4-(substituted amino)phenyl carbamate derivatives” (OcuTerra Therapeutics, Inc., priority 2016, dated 2024)
Where two headings read alike, the source gives them in different places.

Assays:
human Kv7.2/7.3 channels = target: T1, human Kv7.2/7.3 channels (Homo sapiens, UniProt O43525+O43526); test: Assessment of recombinantly expressed human Kv7.2/7.3 channel activation on SyncroPatch automated patch clamp platform; format: cell-based; details: for activation of Kv7.2/7.3 channels as measured by the SyncroPatch platform: FIGS. 2A-2G plots
T1 construct: expressed in transfected cells
Method: The in vitro effects of a compound of the present application recombinantly expressed human Kv7.2/7.3 channels are assessed on Syncropatch high throughput electrophysiology platform.
Cell Preparations: CHO cells stably expressing human Kv7.2/7.3 channels were cultured in Ham's F-12 media (Hyclone, Cat #SH30022.02) supplemented with 10% Fetal Bovine Serum, 1×MEM non-essential amino acids, and 400m/ml G418 at 37° C. in 5% CO2. On the day of Syncropatch, the cells were washed once in DPBS (Hyclone, Cat #SH30028.03) for approximately 30 seconds. […] 10 ml of cold media (Ham's F-12 media (Hyclone, Cat #SH30022.02) supplemented with 10% Fetal Bovine Serum, 1×MEM non-essential amino acids, and 400m/ml G418) was added to inactivate Trypsin. The cells were then triturated until a single cell suspension was achieved, and the cell count was performed. The cells were then diluted to a concentration of 5×10^5/ml and placed into the “cell hotel” on the deck of the Syncropatch at 10° C. for about 1 hour to recover. 40 μL of the cell suspension was dispensed into each well of a 384-well Syncropatch chip by the onboard pipettor at the beginning of each Syncropatch assay.
Eight-point dose response curves were created by performing semi-log serial dilutions from 10 mM compound stock solutions in 100% DMSO. […] Final DMSO concentration in the assay was 0.3%. Final assay test concentrations were 30 μM to 0.01 μM or 1 μM to 0.0003 μM. Negative (0.3% DMSO) and positive (30 μM ML213) controls were included in each test run to assess pharmacological responsiveness.
Assessment Protocol: Electrophysiological studies of the compounds were performed using the Nanion SyncroPatch automated patch clamp platform.
Kv7 channels were evaluated using a voltage protocol in which cells were voltage-clamped at a holding potential of −110 mV. Potassium currents were activated with a series of voltage steps from −110 mV to +50 mV in 10 mV intervals with 5.5 seconds between successive voltage steps. Each voltage step was 3 seconds in duration and immediately followed by a 1 second voltage step to −120 mV to generate an inward “tail” current to allow construction of activation (G-V) curves by plotting normalized peak tail current versus the potential of the activating voltage step.
Data Analysis: Data was collected on the Syncropatch platform using PatchControl software (Nanion) and processed and analyzed using DataControl Software (Nanion). Normalized percent activation was calculated and activation curves were fit with a Boltzmann function to determine the midpoint voltage of activation (G-V midpoint) for both pre-compound and post-compound conditions for each of the 384-wells of a sealchip with Pipeline Pilot (Accelrys). The difference in G-V midpoint between pre-compound and post-compound conditions (A V0.5) was plotted as a function of concentration and concentration-response curves were fit with a three-parameter logistic equation {Y=Bottom+(Top−Bottom)/(1+10^(Log EC50−X))} for determination of the EC50 (Graphpad Prism).

[1] = in vivo; cited from earlier work
[2] = concentration-dependent shift in G-V midpoint of activation, CHO cells stably expressing human Kv7.2/7.3, SyncroPatch, read-out: EC50 (95% CI)

T1 sequence (O43525 whole entry): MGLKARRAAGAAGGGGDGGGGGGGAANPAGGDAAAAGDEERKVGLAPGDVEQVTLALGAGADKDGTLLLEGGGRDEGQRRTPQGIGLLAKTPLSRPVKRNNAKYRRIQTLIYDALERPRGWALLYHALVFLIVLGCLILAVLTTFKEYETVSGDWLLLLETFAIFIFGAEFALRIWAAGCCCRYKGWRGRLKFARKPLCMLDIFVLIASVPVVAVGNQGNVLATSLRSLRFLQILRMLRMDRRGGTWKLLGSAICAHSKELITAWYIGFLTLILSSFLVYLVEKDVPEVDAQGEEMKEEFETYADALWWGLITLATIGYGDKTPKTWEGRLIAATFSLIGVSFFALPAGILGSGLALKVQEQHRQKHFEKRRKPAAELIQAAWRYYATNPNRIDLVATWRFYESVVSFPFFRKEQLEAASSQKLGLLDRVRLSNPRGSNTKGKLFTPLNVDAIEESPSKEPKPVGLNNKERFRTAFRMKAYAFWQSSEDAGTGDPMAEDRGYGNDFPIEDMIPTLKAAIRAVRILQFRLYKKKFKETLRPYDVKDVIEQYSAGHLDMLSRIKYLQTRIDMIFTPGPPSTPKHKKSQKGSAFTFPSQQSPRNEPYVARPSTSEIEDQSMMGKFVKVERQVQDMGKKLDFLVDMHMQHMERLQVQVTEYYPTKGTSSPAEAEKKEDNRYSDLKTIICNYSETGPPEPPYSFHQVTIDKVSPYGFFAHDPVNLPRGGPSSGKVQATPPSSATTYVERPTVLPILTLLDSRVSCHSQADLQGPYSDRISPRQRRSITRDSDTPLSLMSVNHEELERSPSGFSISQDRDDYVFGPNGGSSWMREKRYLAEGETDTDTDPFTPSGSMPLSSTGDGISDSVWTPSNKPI
T1 sequence (O43526 whole entry): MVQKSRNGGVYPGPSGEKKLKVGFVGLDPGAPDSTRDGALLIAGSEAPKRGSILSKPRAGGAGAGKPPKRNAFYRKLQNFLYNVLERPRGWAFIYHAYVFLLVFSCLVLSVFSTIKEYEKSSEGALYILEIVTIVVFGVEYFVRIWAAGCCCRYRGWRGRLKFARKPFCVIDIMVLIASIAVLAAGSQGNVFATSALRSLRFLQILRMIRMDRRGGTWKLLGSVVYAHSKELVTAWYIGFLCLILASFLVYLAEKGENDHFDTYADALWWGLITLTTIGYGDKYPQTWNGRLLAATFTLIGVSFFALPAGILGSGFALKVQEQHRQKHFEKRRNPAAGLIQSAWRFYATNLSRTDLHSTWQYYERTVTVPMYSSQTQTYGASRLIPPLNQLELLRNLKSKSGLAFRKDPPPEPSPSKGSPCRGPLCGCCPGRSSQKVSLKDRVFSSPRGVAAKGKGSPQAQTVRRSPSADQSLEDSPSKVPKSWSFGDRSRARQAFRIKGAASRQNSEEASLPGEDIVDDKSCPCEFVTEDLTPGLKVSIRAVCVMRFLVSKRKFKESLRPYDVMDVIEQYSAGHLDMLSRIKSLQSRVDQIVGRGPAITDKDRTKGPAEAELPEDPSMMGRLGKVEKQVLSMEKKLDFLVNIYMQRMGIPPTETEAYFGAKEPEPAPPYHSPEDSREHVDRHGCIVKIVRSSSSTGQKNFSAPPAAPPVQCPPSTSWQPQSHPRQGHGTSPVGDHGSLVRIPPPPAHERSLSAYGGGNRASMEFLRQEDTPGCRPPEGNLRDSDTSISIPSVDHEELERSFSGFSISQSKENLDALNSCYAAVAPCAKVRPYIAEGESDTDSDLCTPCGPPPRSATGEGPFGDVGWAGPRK

Structure (SMILES)	activation of Kv7.2/7.3 channels as measured by the SyncroPatch platform (human Kv7.2/7.3 channels)	EC50 (human Kv7.2/7.3 channels; [2])	other results
C=CCN(Cc1ccc(F)cc1)c1ccc(NC(=O)OCC)c(N)c1 [Compound 4, ethyl (4-(allyl(4-fluorobenzyl)amino)-2-aminophenyl)carbamate]	dose-dependent activation	100 to 1000 nM	
CCOC(=O)Nc1ccc(N2CCc3cc(C(F)(F)F)ccc3C2)c(F)c1N [Compound 19, ethyl (2-amino-3-fluoro-4-(6-(trifluoromethyl)-3,4-dihydroisoquinolin-2(1H)-yl)phenyl)carbamate]		1000 to 5000 nM	
CCOC(=O)Nc1ccc(N2CCc3cc(F)ccc3C2)c(F)c1N [Compound 17, ethyl (2-amino-3-fluoro-4-(6-fluoro-3,4-dihydroisoquinolin-2(1H)-yl)phenyl)carbamate]		100 to 1000 nM	
C=CCN(Cc1ccc(C(F)(F)F)cc1)c1ccc(NC(=O)OCC)c(N)c1F [Compound 2, ethyl (4-(allyl(4-(trifluoromethyl)benzyl)amino)-2-amino-3-fluorophenyl)carbamate]		100 to 1000 nM	
CCOC(=O)Nc1ccc(N2CCc3cc(F)ccc3C2)cc1N [Compound 21, ethyl (2-amino-4-(6-fluoro-3,4-dihydroisoquinolin-2(1H)-yl)phenyl)carbamate]		1000 to 5000 nM	
CCOC(=O)Nc1ccc(N2CCc3ccc(F)cc3C2)c(F)c1N [Compound 20, ethyl (2-amino-3-fluoro-4-(7-fluoro-3,4-dihydroisoquinolin-2(1H)-yl)phenyl)carbamate]		100 to 1000 nM	
C=CCN(Cc1cccc(C(F)(F)F)c1)c1ccc(NC(=O)OCC)c(N)c1F [Compound 3, ethyl (4-(allyl(3-(trifluoromethyl)benzyl)amino)-2-amino-3-fluorophenyl)carbamate]		5000 to 25000 nM	
CCOC(=O)Nc1ccc(N2CCc3ccc(C(F)(F)F)cc3C2)c(F)c1N [Compound 18, Ethyl (2-amino-3-fluoro-4-(7-(trifluoromethyl)-3,4-dihydroisoquinolin-2(1H)-yl)phenyl)carbamate]		100 to 1000 nM	
CCOC(=O)Nc1ccc(N2CCc3ccc(F)cc3C2)cc1N [Compound 24, ethyl (2-amino-4-(7-fluoro-3,4-dihydroisoquinolin-2(1H)-yl)phenyl)carbamate]		1000 to 5000 nM	
CCOC(=O)Nc1c(N)cc(NCc2ccc(F)cc2)cc1F [Compound X, reference compound]	dose-dependent activation		EC50 (human Kv7.2/7.3 channels): 100 to 1000 nM
C#CCN(Cc1ccc(F)cc1)c1ccc(NC(=O)OCC)c(N)c1 [Compound 10, reference compound]	dose-dependent activation	1000 to 5000 nM	
C=CCN(Cc1cccc(C(F)(F)F)c1)c1ccc(NC(=O)OCC)c(N)c1 [Compound 6, ethyl (4-(allyl(3-(trifluoromethyl)benzyl)amino)-2-aminophenyl)carbamate]	dose-dependent activation	100 to 1000 nM	
C#CCN(Cc1cccc(C(F)(F)F)c1)c1ccc(NC(=O)OCC)c(N)c1F [Compound 9, ethyl (2-amino-3-fluoro-4-(prop-2-yn-1-yl(3-(trifluoromethyl)benzyl)amino)phenyl)carbamate]		100 to 1000 nM	
CCOC(=O)Nc1ccc(N2CCc3cc(C(F)(F)F)ccc3C2)cc1N [Compound 23, ethyl (2-amino-4-(6-(trifluoromethyl)-3,4-dihydroisoquinolin-2(1H)-yl)phenyl)carbamate]		1000 to 5000 nM	
C#CCN(Cc1ccc(C(F)(F)F)cc1)c1ccc(NC(=O)OCC)c(N)c1F [Compound 8, ethyl (2-amino-3-fluoro-4-(prop-2-yn-1-yl(4-(trifluoromethyl)benzyl)amino)phenyl)carbamate]	dose-dependent activation	100 to 1000 nM	
CCOC(=O)Nc1ccc(N2CCc3ccc(C(F)(F)F)cc3C2)cc1N [Compound 22, ethyl (2-amino-4-(7-(trifluoromethyl)-3,4-dihydroisoquinolin-2(1H)-yl)phenyl)carbamate]		100 to 1000 nM	
C#CCN(Cc1cccc(C(F)(F)F)c1)c1ccc(NC(=O)OCC)c(N)c1 [Compound 12, ethyl (2-amino-4-(prop-2-yn-1-yl(3-(trifluoromethyl)benzyl)amino)phenyl)carbamate]	dose-dependent activation	100 to 1000 nM	
CCOC(=O)Nc1ccc(NCc2ccc(F)cc2)cc1N [Ezogabine, ethyl N-[2-amino-4-[(4-fluorophenyl)methylamino]phenyl]carbamate]			half-life [1]: 8 h
C=CCN(Cc1ccc(F)cc1)c1ccc(NC(=O)OCC)c(N)c1F [Compound 1, ethyl (4-(allyl(4-fluorobenzyl)amino)-2-amino-3-fluorophenyl)carbamate]		1000 to 5000 nM	
C#CCN(Cc1ccc(F)cc1)c1ccc(NC(=O)OCC)c(N)c1F [Compound 7, ethyl (2-amino-3-fluoro-4-((4-fluorobenzyl)(prop-2-yn-1-yl)amino)phenyl)carbamate]	dose-dependent activation	100 to 1000 nM	
C#CCN(Cc1ccc(C(F)(F)F)cc1)c1ccc(NC(=O)OCC)c(N)c1 [Compound 11, ethyl (2-amino-4-(prop-2-yn-1-yl(4-(trifluoromethyl)benzyl)amino)phenyl)carbamate]		100 to 1000 nM	
